Results as given in ChEMBL document CHEMBL1150462, “Synthesis of 2-O-substituted -D-Gal-(14)--D-GlcNAc-1-0-Bn as specific acceptors for -L-(13) fucosyltransferases” (1992).

Key:
Homo sapiens [1] = organism: Homo sapiens; assay: Relative activity was determined at 0.3 mM of compound in ovarian cancer sera in alpha-L-(1-3) fucosyltransferase assay using [14C]-fucose as a ligand; assay type: functional
Ovarian carcinoma cell [2] = assay: (§1) Percentage of fucosyltransferase accepted by the compound in alpha-L-(1-3) fucosyltransferase assay using [14C]fucose as a ligand; assay type: functional, Homo sapiens
Ovarian carcinoma cell [3] = assay: Relative activity was determined at 0.3 mM of compound in ovarian-tumor extract in alpha-L-(1-3) fucosyltransferase assay using [14C]fucose as a ligand; assay type: functional, Homo sapiens
Homo sapiens [4] = organism: Homo sapiens; assay: as §1; assay type: functional
[5] = Kinetic constant of the enzyme activity was determined by incorporation of [14C]- fucose as a function of acceptor concentration
Homo sapiens [6] = organism: Homo sapiens; assay: Percentage of fucosyltransferase accepted by the compound in alpha-L-(1-3) fucosyltransferase assay using [14C]fucose as a ligand;=; assay type: functional
Ovarian carcinoma cell [7] = assay: Percentage of fucosyltransferase accepted by the compound in alpha-L-(1-3) fucosyltransferase assay using [14C]-fucose as a ligand; assay type: functional, Homo sapiens

Compound | Relative activity (Homo sapiens [4]) [%] | Km [5] [µM] | Relative activity (Homo sapiens [6]) [%] | Relative activity (Homo sapiens [1]) [c.p.m.] | Relative activity (Ovarian carcinoma cell [2]) [%] | Relative activity (Ovarian carcinoma cell [3]) [c.p.m.] | Relative activity (Ovarian carcinoma cell [7]) [%]
CC(=O)N[C@@H]1[C@@H](O)[C@H](O[C@@H]2O[C@H](CO)[C@H](O)[C@H](O)[C@H]2O[C@@H]2O[C@@H](C)[C@@H](O)[C@@H](O)[C@@H]2O)[C@@H](CO)O[C@H]1O | 100 | – | – | 4380 | 100 | 18291 | –
CC(=O)N[C@H]1[C@H](OCc2ccccc2)O[C@H](CO)[C@@H](O[C@@H]2O[C@H](CO)[C@H](O)[C@H](O)[C@H]2O[C@@H]2O[C@@H](C)[C@@H](O)[C@@H](O)[C@@H]2O)[C@@H]1O | – | 260 | 168 | 7350 | – | 42580 | 233
CC(=O)N[C@@H]1[C@@H](O)[C@H](O[C@@H]2O[C@H](CO)[C@H](O)[C@H](O)[C@H]2O)[C@@H](CO)O[C@H]1O | – | – | – | 1620 | – | 5024 | –

Continued, in another order:

Relative activity (Homo sapiens [4]) [%] | Km [5] [µM] | Relative activity (Homo sapiens [6]) [%] | Compound | Relative activity (Homo sapiens [1]) [c.p.m.] | Relative activity (Ovarian carcinoma cell [2]) [%] | Relative activity (Ovarian carcinoma cell [3]) [c.p.m.] | Relative activity (Ovarian carcinoma cell [7]) [%]
308 | 440 | – | CO[C@H]1[C@H](O[C@H]2[C@H](O)[C@@H](NC(C)=O)[C@H](OCc3ccccc3)O[C@@H]2CO)O[C@H](CO)[C@H](O)[C@@H]1O | 5330 | 375 | 14924 | –
100 | 1330 | – | CO[C@H]1[C@H](O[C@H]2[C@H](O)[C@@H](NC(C)=O)C(O)O[C@@H]2CO)O[C@H](CO)[C@H](O)[C@@H]1O (stereo partly specified) | 1730 | – | 3977 | 100
